Results published in US20230147312A1, “TREATMENT OF ACUTE RESPIRATORY DISTRESS SYNDROME AND RELATED CONDITIONS WITH ANTAGONISTS OF E-SELECTIN” (GLYCOMIMETICS, INC., priority 2020, published 2023).
Entries after “also recorded” stand apart in the source; their conditions may differ. Like-named read-outs stand apart in the source and are kept apart here.

Columns and labels:
[1] = test system: Human lung microvascular endothelial cells (HMVEC-L); details: HMVEC-L treated with 10 μM; cited from earlier work
[2] = test system: animals; experiment: toxicity in animals
[3] = test system: humans; experiment: toxicity in Phase 1 clinical trials / humans
[4] = target: T1, E-selectin (Homo sapiens, UniProt P16581); experiment: binding and inhibiting E-selectin
T1 sequence (P16581 22-610): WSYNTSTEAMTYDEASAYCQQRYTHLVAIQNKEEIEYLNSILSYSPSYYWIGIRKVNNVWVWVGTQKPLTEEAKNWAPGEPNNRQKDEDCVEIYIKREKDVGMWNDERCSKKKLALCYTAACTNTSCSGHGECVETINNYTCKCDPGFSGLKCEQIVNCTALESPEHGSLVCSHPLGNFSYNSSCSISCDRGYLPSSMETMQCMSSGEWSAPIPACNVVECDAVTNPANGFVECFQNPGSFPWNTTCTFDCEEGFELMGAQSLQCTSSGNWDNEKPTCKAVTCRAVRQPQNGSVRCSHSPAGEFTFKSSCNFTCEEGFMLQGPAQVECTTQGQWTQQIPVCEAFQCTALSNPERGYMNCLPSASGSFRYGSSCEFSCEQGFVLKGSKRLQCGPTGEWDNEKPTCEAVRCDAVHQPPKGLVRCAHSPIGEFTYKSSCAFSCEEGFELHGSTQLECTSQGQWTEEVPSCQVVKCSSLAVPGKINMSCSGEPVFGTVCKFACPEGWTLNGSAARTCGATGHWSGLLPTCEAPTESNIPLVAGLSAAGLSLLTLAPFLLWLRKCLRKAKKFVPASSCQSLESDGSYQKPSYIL

[5] = test system: humans; details: human, in vivo
[6] = test system: sE-selectin; details: cited from earlier work
[7] = test system: animals; details: in vivo
[8] = test system: human umbilical vein endothelial cells (HUVEC); details: cytokine treatment over 4 hours, vs Medium control; cited from earlier work
[9] = test system: human dermal microvascular endothelial cells (HDMEC); details: cytokine treatment over 4 hours, vs Medium control; cited from earlier work
[10] = test system: COVID-19 patients; details: of six COVID-19 patients in the ICU; cited from earlier work

CCCCCCCCCCCCCCC(Cl)C(=O)O (stereo not shown) [Compound 2-CIPA, 2-chloropalmitic acid]
adherence of human neutrophils [1]: promoted neutrophil adhesion; also recorded: increases adhesion of neutrophils

C[C@@H]1O[C@@H](O[C@@H]2[C@@H](NC(=O)c3cc(=O)[nH]c(=O)[nH]3)C[C@@H](C(=O)NCCNC(=O)COCCOCC(=O)Nc3cc(S(=O)(=O)O)cc4cc(S(=O)(=O)O)cc(S(=O)(=O)O)c34)C[C@H]2O[C@@H]2O[C@H](CO)[C@H](O)[C@H](O[C@@H](CC3CCCCC3)C(=O)O)[C@H]2OC(=O)c2ccccc2)[C@@H](O)[C@H](O)[C@@H]1O [GMI-1070]
toxicities [2]: no measurable toxicities | toxicity ([2]; relatively high concentrations): no toxicity | toxicities ([3]; Phase 1 clinical trials): no measurable toxicities | toxicity ([3]; humans, relatively high concentrations): no toxicity

CC[C@H]1C[C@@H](C(=O)NCCNC(=O)CCOCCOCCOCCOCCOCCOCCOCCOCCOCCOCCOCCOC)C[C@@H](O[C@@H]2O[C@H](CO)[C@H](O)[C@H](O[C@@H](CC3CCCCC3)C(=O)[O-])[C@H]2NC(C)=O)[C@@H]1O[C@@H]1O[C@@H](C)[C@@H](O)[C@@H](O)[C@@H]1O.[Na+] [GMI-1271]
antagonism of E-selectin [4]: potent antagonists of E-selectin | toxicities [5]: no measurable toxicities | toxicity [5]: no toxicity | sE-selectin circulating (plasma) levels ([6]; AML patients, after treatment, all dose groups): significantly (P<0.0001) reduced; also recorded: decreased over the treatment period in all dose groups | decrease of plasma soluble E-selectin from baseline to Day 8 ([6]; end of 6 days of dosing concurrently with MEC chemotherapy): highly significant (p<0.0001) with no dose response | toxicities [7]: no measurable toxicities | toxicity [7]: no toxicity

CCCCCCCCCCCCCCCC(=O)O [PA, palmitic acid]
adherence of human neutrophils [1]: did not

IL-1β: cytokine used to treat endothelial cells
expression of E-selectin [8]: stimulate expression of E-selectin | expression of E-selectin [9]: stimulate expression of E-selectin

TNFα
expression of E-selectin [8]: stimulate expression of E-selectin | expression of E-selectin [9]: stimulate expression of E-selectin

tocilizimab: antibody directed against the cytokine, IL-6, approved as an anti-inflammatory drug
patients who died [10]: one | patients who showed improvement [10]: three | patients who stabilized [10]: two

B1: IL-10: cytokine used to treat endothelial cells (protein, UniProt P22301 19-178, looked up)
Interleukin-10: SPGQGTQSENSCTHFPGNLPNMLRDLRDAFSRVKTFFQMKDQLDNLLLKESLLEDFKGYLGCQALSEMIQFYLEEVMPQAENQDPDIKAHVNSLGENLKTLRLRLRRCHRFLPCENKSKAVEQVKNAFNKLQEKGIYKAMSEFDIFINYIEAYMTMKIRN
expression of E-selectin [8]: stimulate expression of E-selectin | expression of E-selectin [9]: stimulate expression of E-selectin
